{"source": "paper PMC10487658", "about": "“Identification and Characterization of RK22, a Novel Antimicrobial Peptide from Hirudinaria manillensis against Methicillin Resistant Staphylococcus aureus” (International Journal of Molecular Sciences, 2023)", "key": {"[1]": {"system": "MRSA-Z (clinically isolated methicillin-resistant S. aureus)", "assay": "microbe, parasite or virus in culture", "assay_type": "cell-based, Staphylococcus aureus", "settings": "Staphylococcus aureus, MRSA", "protocol": "(§1) The bacterial strains used in this study included Pseudomonas aeruginosa (P. aeruginosa, ATCC27853), Acinetobacter baumannii (A. baumannii, ATCC19606), Escherichia coli (E. coli, ATCC8739), and S. aureus (ATCC6538, two clinically isolated strains (SA220823 and SA15772)), and three clinically isolated methicillin-resistant strains (MRSA-Z, MRSA11, and MRSA22). All strains were grown in Luria-Bertani (LB) broth.\n(§2) The minimum inhibitory concentration (MIC) for all strains was determined using the […] assay based on a previous study with minor modifications. Initially, strains in the exponential phase were diluted to a concentration of 2 × 10^5 CFU/mL using RPMI 1640 medium (Corning, New York, NY, USA). Next, 100 μL of the bacterial suspension was mixed with 100 μL of the sample solution (final concentration 0–200 μg/mL in RPMI 1640 medium) in 96-well plates. The plates were then incubated at 37 °C for 12–16 h. After incubation, the absorbance at 600 nm was measured, and the MIC was determined as the lowest concentration of the test sample in which no bacterial growth was detected in the well."}, "[2]": {"system": "MRSA11 (clinically isolated methicillin-resistant S. aureus)", "assay": "microbe, parasite or virus in culture", "assay_type": "cell-based, Staphylococcus aureus", "settings": "Staphylococcus aureus", "protocol": "as §1, §2"}, "[3]": {"system": "MRSA22 (clinically isolated methicillin-resistant S. aureus)", "assay": "microbe, parasite or virus in culture", "assay_type": "cell-based, Staphylococcus aureus", "settings": "Staphylococcus aureus", "protocol": "as §1, §2"}, "S. aureus (ATCC6538)": {"system": "S. aureus (ATCC6538)", "assay": "microbe, parasite or virus in culture", "assay_type": "cell-based, Staphylococcus aureus", "protocol": "as §1, §2"}, "[4]": {"system": "SA15772 (clinically isolated S. aureus)", "assay": "microbe, parasite or virus in culture", "assay_type": "cell-based, Staphylococcus aureus", "settings": "Staphylococcus aureus", "protocol": "as §1, §2"}, "[5]": {"system": "SA220823 (clinically isolated S. aureus)", "assay": "microbe, parasite or virus in culture", "assay_type": "cell-based, Staphylococcus aureus", "settings": "Staphylococcus aureus", "protocol": "as §1, §2"}, "MRSA-Z [6]": {"system": "MRSA-Z", "assay": "Bacterial killing kinetic assay", "assay_type": "cell-based, Staphylococcus aureus", "settings": "10 × MIC, 6 h, RPMI 1640, 37 °C, CFU count, 3 individual experiments", "protocol": "(§3) The bactericidal killing kinetic assay was performed according to a previous study with minor modifications. Firstly, S. aureus ATCC6538 or methicillin-resistant S. aureus MRSA-Z was diluted to 2 × 10^5 CFU/mL using RPMI 1640 medium. Equal volumes of either RK22 (final concentration 1, 5, 10 × MIC) or vancomycin (Macklin, Shanghai, China) (final concentration 1, 5, 10 × MIC) solutions were added to the bacterial suspension. The mixtures were then incubated at 37 °C for different times (0, 15, 30, 60, 180, and 360 min). At each time point, the bacterial solution was inoculated on LB agar culture medium, and colony forming units (CFUs) were counted after 24 h."}, "S. aureus ATCC6538 [7]": {"system": "S. aureus ATCC6538", "assay": "Bacterial killing kinetic assay", "assay_type": "cell-based, Staphylococcus aureus", "settings": "RPMI 1640, 37 °C, CFU count, 3 individual experiments", "protocol": "as §3"}, "MRSA-Z [8]": {"system": "MRSA-Z", "assay": "S. aureus-induced bacteremia model", "assay_type": "in vivo, mouse", "settings": "RK22 8 mg/kg, vancomycin 4 mg/kg ip 1 h after infection, 4 h after administration", "protocol": "(§4) S. aureus ATCC6538 or methicillin-resistant S. aureus MRSA-Z were diluted to a concentration of 1 × 10^9 CFU/mL with normal saline. Male C57BL/6 mice (6–8 weeks of age) were randomly divided into seven groups of 10–12 mice per group. S. aureus ATCC6538 (100 μL) or methicillin-resistant S. aureus MRSA-Z (200 μL) were injected intravenously. At the end of 1 h, mice received an intraperitoneal injection of normal saline, vancomycin (dissolved in saline with the concentration of 2 and 4 mg/kg), or RK22 (dissolved in saline with the concentration of 2, 4, and 8 mg/kg). At 4 h post-administration, the mice were sacrificed, and blood and lung samples were collected. Lungs were then weighed and placed in 1 mL of PBS and homogenized on ice with a tissue grinder. Homogenates and clarified blood were plated in LB agar culture medium and CFUs were counted after 24 h. For histopathological analysis, sections of lung were fixed with 4% paraformaldehyde, embedded in paraffin wax, and stained with H&E."}, "S. aureus ATCC6538 [9]": {"system": "S. aureus ATCC6538", "assay": "S. aureus-induced bacteremia model", "assay_type": "in vivo, mouse", "settings": "RK22 8 mg/kg, vancomycin 4 mg/kg ip 1 h after infection, 4 h after administration", "protocol": "as §4"}, "P. aeruginosa, ATCC9027": {"system": "P. aeruginosa, ATCC9027", "assay_type": "cell-based, Pseudomonas aeruginosa", "settings": "RPMI 1640, 37 °C, 12–16 h, absorbance at 600 nm"}, "E. coli, ATCC25922": {"system": "E. coli, ATCC25922", "assay_type": "cell-based, Escherichia coli", "settings": "RPMI 1640, 37 °C, 12–16 h, absorbance at 600 nm"}, "FXa": {"target": "T1, FXa (Homo sapiens, UniProt P00742)", "T1 construct": "purchased Enzymeresearch, Lake Oswego, OR, USA", "T1 sequence (P00742 235-488 limits assumed)": "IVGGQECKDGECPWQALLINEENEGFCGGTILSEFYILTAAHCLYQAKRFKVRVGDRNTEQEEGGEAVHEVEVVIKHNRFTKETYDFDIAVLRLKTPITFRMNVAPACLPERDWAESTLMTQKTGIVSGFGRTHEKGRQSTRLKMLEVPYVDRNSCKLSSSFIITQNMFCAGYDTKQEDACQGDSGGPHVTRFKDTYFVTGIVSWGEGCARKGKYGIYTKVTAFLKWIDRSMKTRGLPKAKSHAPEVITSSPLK", "T1 sequence (P00742 41-179 partner limits assumed)": "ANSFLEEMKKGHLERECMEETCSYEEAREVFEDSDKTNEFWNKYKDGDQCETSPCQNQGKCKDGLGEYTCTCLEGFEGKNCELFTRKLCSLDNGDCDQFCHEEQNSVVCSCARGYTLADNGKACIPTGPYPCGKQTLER", "assay": "Enzymatic activity assay of coagulation factors, chromogenic substrate", "assay_type": "biochemical", "settings": "40, 200, 1000 nM, 10 min pre-incubation, substrate S-2222, 405 nm", "protocol": "(§5) The enzymatic activity of RK22 and LL-37 against coagulation factors was measured using the chromogenic substrate method. In brief, 5 μL of FXa (Enzymeresearch, Lake Oswego, OR, USA) (final concentration 3 μg/mL) or thrombin (Enzymeresearch, Lake Oswego, OR, USA) (final concentration 0.1056 μg/mL) and 5 μL of sample (final concentration 40, 200, and 1000 nM) were incubated for 10 min in 96-well plates, respectively. Following incubation, thrombin substrate (S-2238, Chromogenix, Milano, Italy, 45 μg/mL) or FXa substrate (S-2222, Chromogenix, Milano, Italy, 90 μg/mL) dissolved with 90 μL of enzyme dynamic buffer (100 mM NaCl, 50 mM Tris, 5 mM CaCl2, pH 8.0) were added and absorbance was measured at 405 nm every 1 min for 90 min."}, "thrombin": {"target": "T2, thrombin (Homo sapiens, UniProt P00734)", "T2 construct": "purchased Enzymeresearch, Lake Oswego, OR, USA", "assay": "Enzymatic activity assay of coagulation factors, chromogenic substrate", "assay_type": "biochemical", "settings": "40, 200, 1000 nM, 10 min pre-incubation, substrate S-2238, 405 nm", "protocol": "as §5"}, "washed platelets": {"system": "washed platelets", "assay": "Platelet activity assay, flow cytometry", "assay_type": "cell-based", "settings": "mouse washed platelets, 20, 10, 5, 2.5 μg/mL, 10 min, P-selectin", "protocol": "Platelets were isolated from the mice as described in a previous study with minor modifications. The effect of RK22 and LL-37 on platelet activity was detected by flow cytometry. Mouse blood was mixed with Tyrode’s buffer A (137 mM NaCl, 2 mM KCl, 0.3 mM NaH2PO4, 12 mM NaHCO3, 5.5 mM glucose, 0.35% BSA, 1 mM MgCl2, and 0.2 mM EDTA, pH 6.5) and centrifuged (150× g, 10 min, room temperature) to obtain platelet-rich plasma (PRP), which was then pelleted (400× g, 5 min, room temperature), washed with Tyrode’s buffer A, and finally resuspended in Tyrode’s buffer B (137 mM NaCl, 2 mM KCl, 0.3 mM NaH2PO4, 12 mM NaHCO3, 5.5 mM glucose, 0.35% BSA and 2 mM CaCl2, pH 7.4). Antibodies against P-selectin (Biolegend, San Diego, CA, USA) were added to the platelets, followed by incubation for 10 min at room temperature. Samples (20, 10, 5, and 2.5 μg/mL) or normal saline were added, respectively, and analyzed by flow cytometry (BD, LSRFortessa^TM, Franklin Lakes, NJ, USA)."}, "[10]": {"settings": "P. aeruginosa ATCC9027 in Table 3"}}, "note": "Read-outs that look alike come from different tables or passages of the source. Residues, ends and D or L forms follow the SMILES beside them. No end group written: not given here."}
{"compound": "CN[C@H](CC(C)C)C(=O)N[C@H]1C(=O)N[C@@H](CC(N)=O)C(=O)N[C@H]2C(=O)N[C@H]3C(=O)N[C@H](C(=O)N[C@H](C(=O)O)c4cc(O)cc(O)c4-c4cc3ccc4O)[C@H](O)c3ccc(c(Cl)c3)Oc3cc2cc(c3O[C@@H]2O[C@H](CO)[C@@H](O)[C@H](O)[C@H]2O[C@H]2C[C@](C)(N)[C@H](O)[C@H](C)O2)Oc2ccc(cc2Cl)[C@H]1O", "note": "[Vancomycin, vancomycin, reference compound]", "values": [{"measurement": "MIC", "setting": "[1]", "value": 1.56, "unit": "µg/mL"}, {"measurement": "MIC", "setting": "[2]", "value": 1.56, "unit": "µg/mL"}, {"measurement": "MIC", "setting": "[3]", "value": 1.56, "unit": "µg/mL"}, {"measurement": "MIC", "setting": "S. aureus (ATCC6538); Staphylococcus aureus", "value": 1.56, "unit": "µg/mL"}, {"measurement": "MIC", "setting": "[4]", "value": 1.56, "unit": "µg/mL"}, {"measurement": "MIC", "setting": "[5]", "value": 1.56, "unit": "µg/mL"}, {"measurement": "MRSA-Z inhibited / eradicated", "setting": "MRSA-Z [6]", "value": "about 80%"}, {"measurement": "time to a kill rate of more than 90%", "setting": "S. aureus ATCC6538 [7]; S. aureus ATCC6538, 5 × MIC", "value": 6, "unit": "h"}, {"measurement": "time to a kill rate of more than 90%", "setting": "S. aureus ATCC6538 [7]; S. aureus ATCC6538, 10 × MIC", "value": 6, "unit": "h"}, {"measurement": "infection-induced tissue injury in the lung (H&E)", "setting": "MRSA-Z [8]", "value": "significantly alleviated"}, {"measurement": "infection-induced hemorrhage and inflammatory cell infiltration in the lung (H&E)", "setting": "S. aureus ATCC6538 [9]", "value": "significantly alleviated"}]}
{"compound": "KTRRRNRKHKKTINTETVQI [KT20]", "values": [{"measurement": "MIC", "setting": "S. aureus (ATCC6538)", "value": 50, "unit": "µg/mL"}, {"measurement": "MIC", "setting": "P. aeruginosa, ATCC9027; [10]", "value": ">100", "unit": "µg/mL"}, {"measurement": "MIC", "setting": "E. coli, ATCC25922; E. coli ATCC25922", "value": ">100", "unit": "µg/mL"}]}
{"compound": "KSSNTKAKKKKKNN [KS14]", "values": [{"measurement": "MIC", "setting": "S. aureus (ATCC6538)", "value": 50, "unit": "µg/mL"}, {"measurement": "MIC", "setting": "P. aeruginosa, ATCC9027; [10]", "value": ">100", "unit": "µg/mL"}, {"measurement": "MIC", "setting": "E. coli, ATCC25922; E. coli ATCC25922", "value": ">100", "unit": "µg/mL"}]}
{"compound": "KSKSKKPSKSKPKKKKTSVVQQELQDVISFDFGC [KS34]", "values": [{"measurement": "MIC", "setting": "P. aeruginosa, ATCC9027; [10]", "value": ">100", "unit": "µg/mL"}, {"measurement": "MIC", "setting": "E. coli, ATCC25922; E. coli ATCC25922", "value": ">100", "unit": "µg/mL"}]}
{"compound": "LL-37", "values": [{"measurement": "effect on enzymatic activity of FXa", "setting": "FXa", "value": "significant potentiation activity"}, {"measurement": "effect on enzymatic activity of thrombin", "setting": "thrombin", "value": "significant potentiation activity"}, {"measurement": "platelet activation", "setting": "washed platelets", "value": "significant and dose-dependent effects on platelet activation"}]}
{"compound": "CC(C)C[C@H](NC(=O)[C@@H](NC(=O)[C@@H](NC(=O)[C@H](CS)NC(=O)[C@@H](NC(=O)[C@H](CCCCN)NC(=O)[C@H](CCCCN)NC(=O)[C@H](CCCCN)NC(=O)[C@H](CCCCN)NC(=O)[C@@H]1CCCN1C(=O)[C@H](CCCCN)NC(=O)[C@@H]1CCCN1C(=O)[C@H](CCCCN)NC(=O)[C@@H]1CCCN1C(=O)[C@H](CS)NC(=O)[C@H](CC(C)C)NC(=O)[C@@H](NC(=O)[C@H](C)NC(=O)[C@@H](N)CCCNC(=N)N)C(C)C)C(C)C)C(C)C)C(C)C)C(=O)O", "note": "[RA19] (H-RAVLCPKPKPKKKKVCVVL-OH; N-terminus and C-terminus assumed)", "values": [{"measurement": "MIC", "setting": "P. aeruginosa, ATCC9027; P. aeruginosa ATCC27853 as printed in the text", "value": "exceeding 100 μg/mL"}, {"measurement": "MIC", "setting": "E. coli, ATCC25922; E. coli ATCC8739 as printed in the text", "value": "exceeding 100 μg/mL"}]}
{"compound": "VFLICFSLISPASFENVRAKW [VF21]", "values": [{"measurement": "MIC", "setting": "P. aeruginosa, ATCC9027; [10]", "value": ">100", "unit": "µg/mL"}, {"measurement": "MIC", "setting": "E. coli, ATCC25922; E. coli ATCC25922", "value": ">100", "unit": "µg/mL"}]}
